Reference: patent publication US9682995B2, “Amino-substituted isothiazoles” (BAYER PHARMA AKTIENGESELLSCHAFT, priority 2013, dated 2017)

Columns and labels:
[1] = target: human kinase Mps-1 (Homo sapiens (Human), UniProt P33981); experiment: Mps-1 kinase assay (TR-FRET); format: biochemical; conditions: 10 μM ATP; read-out: Mps1 avg (IC50 [mol/l])
Method in brief: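 GST-tagged full-length human Mps-1 (~0.5 nM) preincubated 15 min with compound, then reacted 60 min at 22 °C with 10 μM ATP and 1 μM biotinylated peptide in Hepes pH 7.7 buffer. Phosphoproduct detected by TR-FRET (Eu anti-phospho-Ser/Thr, SA-XLent); 665/620 ratio normalised to no-inhibitor and no-enzyme controls.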

[2] = tested on: spindle assembly checkpoint; experiment: SAC-Formation - Paclitaxel-Induced Assay; format: cell-based; conditions: Homo sapiens; HeLa cells, paclitaxel 0.05 μM, 24 h, phosphorylated histone H3 on serine 10
Method in brief: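 HeLa cells were plated overnight, then given paclitaxel (0.05 μM final) plus compound (0.005-20 μM, 0.5% DMSO) for 24 h at 37° C. Fixed cells were stained for phospho-histone H3 Ser10 and with Hoechst, then imaged to give mitotic index. A fall in mitotic cells marks SAC breakthrough, and values were fit with a four-parameter Hill equation.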

Chain of human kinase Mps-1 (P33981 whole entry): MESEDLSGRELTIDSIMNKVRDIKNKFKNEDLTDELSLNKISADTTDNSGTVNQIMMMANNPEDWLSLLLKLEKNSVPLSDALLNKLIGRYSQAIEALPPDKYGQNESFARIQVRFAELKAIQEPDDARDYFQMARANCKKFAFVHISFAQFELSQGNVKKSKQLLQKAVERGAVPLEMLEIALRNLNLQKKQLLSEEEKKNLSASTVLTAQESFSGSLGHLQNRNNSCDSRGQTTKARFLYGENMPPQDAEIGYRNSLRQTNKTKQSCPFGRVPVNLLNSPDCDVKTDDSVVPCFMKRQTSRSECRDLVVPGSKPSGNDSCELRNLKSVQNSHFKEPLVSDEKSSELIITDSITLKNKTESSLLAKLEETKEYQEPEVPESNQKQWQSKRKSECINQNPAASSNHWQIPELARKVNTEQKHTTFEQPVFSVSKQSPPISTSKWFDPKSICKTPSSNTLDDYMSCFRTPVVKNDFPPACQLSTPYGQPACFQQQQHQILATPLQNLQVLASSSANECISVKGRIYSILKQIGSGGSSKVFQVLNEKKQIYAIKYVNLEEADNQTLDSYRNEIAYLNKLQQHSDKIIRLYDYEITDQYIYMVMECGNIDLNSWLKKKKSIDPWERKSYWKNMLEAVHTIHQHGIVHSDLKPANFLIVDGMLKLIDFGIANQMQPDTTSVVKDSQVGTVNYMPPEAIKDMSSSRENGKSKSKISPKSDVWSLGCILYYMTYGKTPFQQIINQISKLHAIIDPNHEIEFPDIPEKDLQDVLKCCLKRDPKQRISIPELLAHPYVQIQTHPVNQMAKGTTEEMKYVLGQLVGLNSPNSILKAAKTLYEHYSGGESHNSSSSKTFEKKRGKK

Row | IC50 [1] [nM] | IC50 [2] [nM] | SMILES
1 | > 20000 | 940 | CNC(=O)c1cncc(Nc2snc(C)c2C(=O)Nc2ccc(F)c(F)c2)n1 [Example 70, 6-({4-[(3,4-Difluorophenyl)carbamoyl]-3-methyl-1,2-thiazol-5-yl}amino)-N-methylpyrazine-2-carboxamide]
2 | > 20000 | 1700 | CCc1ccccc1NC(=O)c1c(C)nsc1Nc1cc(C#N)ccn1 [Example 4, 5-[(4-Cyanopyridin-2-yl)amino]-N-(2-ethylphenyl)-3-methyl-1,2-thiazole-4-carboxamide]
3 | > 20000 | 31 | Cc1nsc(Nc2cnc(Cl)cn2)c1C(=O)Nc1ccc(F)c(F)c1 [Example 74, 5-[(5-Chloropyrazin-2-yl)amino]-N-(3,4-difluorophenyl)-3-methyl-1,2-thiazole-4-carboxamide]
4 | > 20000 | 8.3 | Cc1nsc(Nc2cnc(Br)cn2)c1C(=O)Nc1ccc(F)c(F)c1 [Example 77, 5-[(5-Bromopyrazin-2-yl)amino]-N-(3,4-difluorophenyl)-3-methyl-1,2-thiazole-4-carboxamide]
5 |  | 1100 | COc1ccc(NC(=O)c2c(C)nsc2Nc2nc3ccc(F)cc3s2)cn1 [Example 88, 5-[(6-Fluoro-1,3-benzothiazol-2-yl)amino]-N-(6-methoxypyridin-3-yl)-3-methyl-1,2-thiazole-4-carboxamide]
6 | > 20000 | 20000 | COc1cncc(Nc2snc(C)c2C(=O)Nc2ccc(F)c(F)c2)n1 [Example 72, N-(3,4-Difluorophenyl)-5-[(6-methoxypyrazin-2-yl)amino]-3-methyl-1,2-thiazole-4-carboxamide]
7 | > 20000 | 63 | CCNC(=O)c1cncc(Nc2snc(C)c2C(=O)Nc2ccc(F)c(F)c2)n1 [Example 73, 6-({4-[(3,4-Difluorophenyl)carbamoyl]-3-methyl-1,2-thiazol-5-yl}amino)-N-ethylpyrazine-2-carboxamide]
8 | > 20000 | 30 | Cc1nsc(Nc2cnc3cc(C(F)(F)F)ccc3n2)c1C(=O)Nc1ccc(Cl)c(F)c1 [Example 68, N-(4-Chloro-3-fluorophenyl)-3-methyl-5-{[6-(trifluoromethyl)quinoxalin-2-yl]amino}-1,2-thiazole-4-carboxamide]
9 |  | 1400 | CCc1ccccc1NC(=O)c1c(C)nsc1Nc1nc(C(=O)OC)co1 [Example 91, Methyl 2-({4-[(2-ethylphenyl)carbamoyl]-3-methyl-1,2-thiazol-5-yl}amino)-1,3-oxazole-4-carboxylate]
10 | > 20000 | 16 | Cc1nsc(Nc2cnc(C(F)(F)F)cn2)c1C(=O)Nc1ccc(F)c(F)c1 [Example 81, N-(3,4-Difluorophenyl)-3-methyl-5-{[5-(trifluoromethyl)pyrazin-2-yl]amino}-1,2-thiazole-4-carboxamide]
11 | 19000 | 290 | Cc1nsc(Nc2nc3c(C(F)(F)F)ccnc3s2)c1C(=O)Nc1ccc(F)c(F)c1 [Example 58, N-(3,4-Difluorophenyl)-3-methyl-5-{[7-(trifluoromethyl)[1,3]thiazolo[5,4-b]pyridin-2-yl]amino}-1,2-thiazole-4-carboxamide]
12 | > 20000 | 22 | Cc1nsc(Nc2cncc(-n3cccn3)n2)c1C(=O)Nc1ccc(Cl)c(F)c1 [Example 67, N-(4-Chloro-3-fluorophenyl)-3-methyl-5-{[6-(1H-pyrazol-1-yl)pyrazin-2-yl]amino}-1,2-thiazole-4-carboxamide]
13 | > 20000 | 490 | CCc1ccccc1NC(=O)c1c(C)nsc1Nc1cnc2cc(Cl)ccc2n1 [Example 86, 5-[(6-Chloroquinoxalin-2-yl)amino]-N-(2-ethylphenyl)-3-methyl-1,2-thiazole-4-carboxamide]
14 | > 20000 | 150 | CCc1cnc(Nc2snc(C)c2C(=O)Nc2ccc(F)c(F)c2)cn1 [Example 79, N-(3,4-Difluorophenyl)-5-[(5-ethylpyrazin-2-yl)amino]-3-methyl-1,2-thiazole-4-carboxamide]
15 | > 20000 | 77 | Cc1nsc(Nc2cncc(C(F)(F)F)n2)c1C(=O)Nc1ccc(F)c(F)c1 [Example 82, N-(3,4-Difluorophenyl)-3-methyl-5-{[6-(trifluoromethyl)pyrazin-2-yl]amino}-1,2-thiazole-4-carboxamide]
16 | > 20000 | > 20000 | CCc1ccccc1NC(=O)c1c(C)nsc1Nc1nccc(-c2ccccc2)n1 [Example 5, N-(2-Ethylphenyl)-3-methyl-5-[(4-phenylpyrimidin-2-yl)amino]-1,2-thiazole-4-carboxamide]
17 | > 20000 | 11000 | CCc1ccccc1NC(=O)c1c(C)nsc1Nc1ccncn1 [Example 2, N-(2-Ethylphenyl)-3-methyl-5-(pyrimidin-4-ylamino)-1,2-thiazole-4-carboxamide]
18 | > 20000 | 13 | CCc1cncc(Nc2snc(C)c2C(=O)Nc2ccc(F)c(F)c2)n1 [Example 76, N-(3,4-Difluorophenyl)-5-[(6-ethylpyrazin-2-yl)amino]-3-methyl-1,2-thiazole-4-carboxamide]
19 | > 20000 | 42 | Cc1nsc(Nc2cnc3cc(C(F)(F)F)ccc3n2)c1C(=O)Nc1ccc(F)c(F)c1 [Example 60, N-(3,4-Difluorophenyl)-3-methyl-5-{[6-(trifluoromethyl)quinoxalin-2-yl]amino}-1,2-thiazole-4-carboxamide]
20 | > 20000 | 8000 | COc1ccc(NC(=O)c2c(C)nsc2Nc2ncc(C(=O)N3CCOCC3)s2)cc1F [Example 93, N-(3-Fluoro-4-methoxyphenyl)-3-methyl-5-{[5-(morpholin-4-ylcarbonyl)-1,3-thiazol-2-yl]amino}-1,2-thiazole-4-carboxamide]
21 | > 20000 | 510 | CCOC(=O)c1sc(Nc2snc(C)c2C(=O)Nc2ccc(Cl)c(F)c2)nc1C [Example 95, Ethyl 2-({4-[(4-chloro-3-fluoro-phenyl)carbamoyl]-3-methyl-1,2-thiazol-5-yl}amino)-4-methyl-1,3-thiazole-5-carboxylate]
22 | > 20000 | 690 | Cc1nsc(Nc2cnccn2)c1C(=O)Nc1ccc(F)c(F)c1 [Example 65, N-(3,4-Difluorophenyl)-3-methyl-5-(pyrazin-2-ylamino)-1,2-thiazole-4-carboxamide]
23 | > 20000 | 84 | Cc1nsc(Nc2cncc(Cl)n2)c1C(=O)Nc1ccc(F)c(F)c1 [Example 71, 5-[(6-Chloropyrazin-2-yl)amino]-N-(3,4-difluorophenyl)-3-methyl-1,2-thiazole-4-carboxamide]
24 |  | 110 | Cc1nsc(Nc2cncc(-n3cccn3)n2)c1C(=O)Nc1ccc(F)c(F)c1 [Example 64, N-(3,4-Difluorophenyl)-3-methyl-5-{[6-(1H-pyrazol-1-yl)pyrazin-2-yl]amino}-1,2-thiazole-4-carboxamide]
25 | > 20000 | 5600 | CCOC(=O)c1cnc(Nc2snc(C)c2C(=O)Nc2ccccc2CC)s1 [Example 92, Ethyl 2-({4-[(2-ethylphenyl)-carbamoyl]-3-methyl-1,2-thiazol-5-yl}amino)-1,3-thiazole-5-carboxylate]
26 |  | 350 | COc1ccc2nc(Nc3snc(C)c3C(=O)Nc3ccc(OC)nc3)sc2c1 [Example 87, 5-[(6-Methoxy-1,3-benzothiazol-2-yl)amino]-N-(6-methoxypyridin-3-yl)-3-methyl-1,2-thiazole-4-carboxamide]
